Measurements: PubChem BioAssay AID602305 (The Scripps Research Institute Molecular Screening Center, 2012)
The source made the active and inactive calls. How the calls were made is not given here.

System: cell line, cAMP TR-FRET counterscreen, inhibition
Assay: dose response, counter-screen, cell-based (AID 602305)

In the case of `CCOP(=O)(CCP(=O)(OCC)OCC)OCC.C[CH2][Sn]([Cl])([Cl])[CH2]C`, the IC50 was > 64.5 µM (inactive).
